Patent US8895753B2, “S1P receptor modulating agent” (Meiji Seika Pharma Co., Ltd., priority 2011, dated 2014)
Values joined by “and” are separate entries in the source; they are usually repeats but may differ in a detail not shown here. Identical values can stand only once.

Tests used:
Human S1P1 receptor [1] = target: T1, Human S1P1 receptor (Homo sapiens, UniProt P21453); experiment: Agonist activity at an S1P1 receptor ([35S]-GTPγS exchange reaction, membrane fractions); format: biochemical; settings: read-out: EC50, agonist activity at S1P1 receptor (GTP exchange reaction)
Method: By using membrane fractions prepared from a human S1P1 receptor expressing cells (Multispan Ltd.), the agonist activity of each test compound was measured by [^35S]-GTPγS exchange reaction in accordance with a standard procedure (Methods in Molecular Biology, Vol. 552, p 143-151 (2009)), and EC50 (nM) of each test compound was computed.

Human S1P3 receptor = Human S1P3 receptor (Homo sapiens, UniProt Q99500); experiment: Agonist activity at an S1P3 receptor ([35S]-GTPγS exchange reaction at 1000 nM); format: biochemical; settings: read-out: percent of the maximal agonist activity at S1P3 receptor
In short: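 Agonism measured by [35S]-GTPγS exchange in membranes from human S1P3-expressing cells, compound tested at 1000 nM.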

Human S1P4 receptor = target: T2, Human S1P4 receptor (Homo sapiens, UniProt O95977); experiment: Agonist activity at an S1P4 receptor (calcium influx); format: cell-based; settings: at 1000 nM; read-out: activity at S1P4 receptor (elevation of intracellular calcium)
T2 sequence (O95977 1-384): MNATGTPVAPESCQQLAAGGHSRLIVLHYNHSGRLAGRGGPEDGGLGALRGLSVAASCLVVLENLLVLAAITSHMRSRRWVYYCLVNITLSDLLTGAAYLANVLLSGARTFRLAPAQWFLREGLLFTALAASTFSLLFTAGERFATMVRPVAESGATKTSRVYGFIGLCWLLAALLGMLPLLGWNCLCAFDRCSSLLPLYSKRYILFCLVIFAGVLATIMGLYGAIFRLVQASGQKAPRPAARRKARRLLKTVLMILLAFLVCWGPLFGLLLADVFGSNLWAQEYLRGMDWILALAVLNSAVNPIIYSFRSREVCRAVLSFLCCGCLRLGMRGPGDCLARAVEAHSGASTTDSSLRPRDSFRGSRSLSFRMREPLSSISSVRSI
Method: By using Human S1P4 receptor expressing cells (Multispan Inc. CG1052-1), the elevation of intracellular calcium concentration via agonist activity by the addition of 1000 nM was measured by Fret method (fluorescence resonance energy transfer).

Human S1P5 receptor = target: T3, Human S1P5 receptor (Homo sapiens, UniProt Q9H228); experiment: Agonist activity at an S1P5 receptor (reporter assay, EDG8-bla/U2OS cells); format: cell-based
T3 construct: host or cells: U2OS (EDG8-bla/U2OS)
Method: Human S1P5 receptor gene recombinant EDG8-bla/U2OS cells (Life Technologies Japan Ltd.) were plated in a 384-well clear bottom black plate at 10000 cells/32 μL/well, and the plate was incubated at 37° C. in a 5% CO2 incubator for 48 hours. A culture containing each test compound prepared as a 5× concentrate was added at 8 μL/well, and the plate was incubated at 37° C. in a 5% CO2 incubator for 5 hours. The substrate (LiveBLAzer™-FRET B/G substrate (CCF4-AM), Life Technologies Japan Ltd.) prepared as a 6× concentrate was added at 8 μL to each well, and the plate was incubated at room temperature for 2 hours in the dark. The fluorescence intensity of each well was measured using a bottom-reading fluorescence microplate reader at one excitation wavelength and 2 wavelengths for fluorescence emission (Ex409 nm, Em460 nm, Em530 nm). The intensity ratio of fluorescence at 460 nm/530 nm was calculated for each well. The maximum response ratio confirmed from the dose response of S1P was expressed as 100%. The concentration of test compound required to stimulate 50% of its maximal activation was determined as EC50 (nM).

blood lymphocytic cells = experiment: Suppressive effect on circulating lymphocytic cells in a rat; format: in vivo; settings: 6 hours after administration
Method: Under anesthesia, a femoral artery was cannulated in a 7-11-week old male SD rat (Charles River Laboratories Japan Inc.) that had been reared for more than one week. A vehicle (in case of intravascular administration, 10% PEG300-0.01 M KOH saline was used, and in case of oral administration, 0.5% hydroxymethyl cellulose solution was used) or a test compound was administered intravascularly or by gavage administration. Right before the administration or 2, 4, 6 hours after the administration, the number of blood lymphocytic cells was counted by using an automated hematology analyzer XT-1800i or XT-2000i (Sysmex). The count of lymphocytic cells right before the administration was regarded as 100%, and the dose of the test compound that reduced blood lymphocytic cells by 50% of vehicle-treated group at the point of 6 hours after the administration was calculated as ED50 (mg/kg body weight).

Human S1P1 receptor [2] = target: T1, Human S1P1 receptor; experiment: Agonist activity at an S1P1 receptor (reporter assay, EDG1-bla/U2OS cells); format: cell-based; set-up: host or cells: U2OS (EDG1-bla/U2OS); settings: S1P maximum response = 100%
In short: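 EDG1-bla/U2OS cells grown 48 h, then exposed to test compound for 5 h at 37 °C; CCF4-AM β-lactamase substrate added for 2 h at room temperature in the dark. Read-out is the 460/530 nm emission ratio (Ex409 nm), normalised to maximal S1P response as 100%; EC50 is the concentration giving 50% of maximal activation.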

T1 sequence (P21453 whole entry): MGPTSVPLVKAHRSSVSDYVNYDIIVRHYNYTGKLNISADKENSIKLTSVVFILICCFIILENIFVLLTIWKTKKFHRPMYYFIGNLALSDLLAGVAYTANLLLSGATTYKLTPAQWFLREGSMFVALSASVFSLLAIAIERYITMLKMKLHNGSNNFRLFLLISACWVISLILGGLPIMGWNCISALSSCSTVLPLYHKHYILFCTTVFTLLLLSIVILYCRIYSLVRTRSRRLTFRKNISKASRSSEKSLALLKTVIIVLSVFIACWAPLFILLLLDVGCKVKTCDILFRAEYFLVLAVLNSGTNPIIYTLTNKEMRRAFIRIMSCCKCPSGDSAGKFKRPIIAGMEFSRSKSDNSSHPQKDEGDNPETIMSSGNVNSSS
Chain of Human S1P3 receptor (Q99500 whole entry): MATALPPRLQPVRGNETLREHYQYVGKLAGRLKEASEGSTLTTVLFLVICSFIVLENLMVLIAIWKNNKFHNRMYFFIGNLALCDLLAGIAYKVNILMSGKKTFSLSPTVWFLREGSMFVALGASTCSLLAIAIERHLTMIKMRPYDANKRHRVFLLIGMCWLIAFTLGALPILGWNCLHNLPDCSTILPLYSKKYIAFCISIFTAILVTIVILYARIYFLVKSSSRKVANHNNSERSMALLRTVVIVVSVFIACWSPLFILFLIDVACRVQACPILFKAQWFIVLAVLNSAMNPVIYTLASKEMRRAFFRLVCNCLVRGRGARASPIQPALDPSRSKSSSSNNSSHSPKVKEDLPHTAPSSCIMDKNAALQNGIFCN
T3 sequence (Q9H228 whole entry): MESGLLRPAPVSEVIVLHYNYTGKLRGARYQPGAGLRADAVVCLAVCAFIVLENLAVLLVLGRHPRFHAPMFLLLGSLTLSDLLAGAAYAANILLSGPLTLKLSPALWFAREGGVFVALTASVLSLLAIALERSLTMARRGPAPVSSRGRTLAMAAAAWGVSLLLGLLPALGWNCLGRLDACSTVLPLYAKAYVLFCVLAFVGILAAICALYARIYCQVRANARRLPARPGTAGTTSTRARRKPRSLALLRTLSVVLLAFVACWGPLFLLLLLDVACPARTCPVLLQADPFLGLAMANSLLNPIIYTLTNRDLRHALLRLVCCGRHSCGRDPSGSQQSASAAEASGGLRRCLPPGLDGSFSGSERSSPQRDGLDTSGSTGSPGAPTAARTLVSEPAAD

Compound | EC50 (Human S1P1 receptor [1]) [nM] | Emax at 1 µM (Human S1P3 receptor) [%] | activation at 1 µM (Human S1P4 receptor) [%] | EC50 (Human S1P5 receptor) [nM] | ED50, dose reducing blood lymphocytic cells by 50% (blood lymphocytic cells; gavage administration) [mg/kg body weight] | ED50, dose reducing blood lymphocytic cells by 50% (blood lymphocytic cells; vascular administration) [mg/kg body weight] | EC50 (Human S1P1 receptor [2])
CC(C)Oc1ccc(-c2cnc(-c3ccc(CN4CC(C(=O)O)C4)cc3)s2)cc1 [Example 2, 1-(4-(5-(4-isopropoxyphenyl)thiazol-2-yl)benzyl)azetidine-3-carboxylic acid] | ≤ 50 | < 20 | < 20 | ≥ 2000 | 0.13 | 0.1 | ≤ 10 nM and 3.79 nM
CC(C)Oc1ccc(-c2cnc(-c3ccc(CN4CC(C(=O)O)C4)cc3)s2)cc1Cl [Example 3, 1-(4-(5-(3-chloro-4-isopropoxyphenyl)thiazol-2-yl)benzyl)azetidine-3-carboxylic acid] | ≤ 10 | 20 to 50 | < 20 | ≥ 2000 | 0.15 | 0.016 | ≤ 1 nM and 0.41 nM
